In patent US20240002393A1, “SUBSTITUTED BENZO[f][l ,2,4JTRIAZOL0[4,3-a][l ,4J[…] GABA A GAMMA! POSITIVE ALLOSTERIC MODULATORS” (Hoffmann-La Roche Inc., priority 2020, published 2024):

Columns and labels:
[1] = biological target: human GABAA α2β2γ1 receptor (Homo sapiens (Human), UniProt P47869+Q8N1C3); test: Radioligand binding assay, [3H]RO7239181 competition, γ1-containing GABAA subtypes; conditions: for γ2/γ1 Selectivity Ratio: Ki α1β3γ2 (nM)/Ki α2β2γ1 (nM); for LogSel: Log[Ki α1β3γ2 (nM)/Ki α2β2γ1 (nM)]
Method: The affinity of compounds at GABAA γ1 subunit-containing receptors was measured by competition for [^3H]RO7239181 (67.3 Ci/mmol; Roche) binding to membranes from HEK293F cells (ThermoFisher R79007) expressing human (transiently transfected) receptors of composition α5β2γ1, α2β2γ1, α1β2γ1.
Harvested pellets from HEK293F cells expressing the different GABAA receptor subtypes were resuspended in Mannitol Buffer pH 7.2-7.4 (Mannitol 0.29M, Triethylamine 10 mM, Acetic acid 10 mM, EDTA 1 mM plus protease inhibitors (20 tablets Complete, Roche Diagnostics Cat. No. 05 056 489 001 per liter)), washed two times and then resuspended at 1:10 to 1:15 dilution in the same buffer. Cell disruption was performed by stirring the suspension in a Parr vessel #4637 at 435 psi for 15 minutes, and then the suspensions were centrifuged at 1000×g for 15 minutes at 4° C. (Beckman Avanti J-HC; rotor JS)-4.2). The supernatant (S1) was transferred in a 21 Schott flask and the pellet (P1) was resuspended with Mannitol Buffer up to 175 ml. The resuspended pellet was transferred into a 250 ml Corning centrifugal beaker and centrifuged at 1500×g for 10 minutes at 4° C. (Beckman Avanti J-HC; rotor JS)-4.2). The supernatant (S1) was then transferred in the 21 Schott flask and the pellet was discarded. The supernatants (S1) were centrifuged in 500 ml Beckman polypropylene centrifugal beaker at 15,000×g for 30 minutes at 4° C. (Beckman Avanti J-20 XP; rotor JLA-10.500). The pellet (P2) was resuspended with Mannitol Buffer 1:1 and frozen at −80° C. The supernatant (S2) was centrifuged in 100 ml Beckman polypropylene centrifugal tubes at 48000×g for 50 minutes at […] (Beckman Avanti J-20 XP; rotor JA-18). The supernatant (S3) was discarded and the pellet (P3) was resuspended with 1:1 Mannitol Buffer. The P2 and P3 protein concentration was determined with the BIORAD Standard assay method with bovine serum albumin as standard and measured on the NANO-Drop 1000. The membrane suspension was aliquots (500 μl per tube) and stored at −80° C. until required.
Membrane homogenates were resuspended and polytronised (Polytron PT1200E Kinematica AG) in Potassium Phosphate 10 mM, KCl 100 mM binding buffer at pH 7.4 to a final assay concentration determined with a previous experiment.
Assays were incubated to equilibrium for 1 hour at 4° C. and then, membranes were filtered onto unifilter (96-well white microplate with bonded GF/C filters preincubated 20-50 minutes in 0.3% Polyethylenimine) with a Filtermate 196 harvester (Packard BioScience) and washed 4 times with cold Potassium Phosphate 10 mM pH 7.4, KCl 100 mM binding buffer. After drying, filter-retained radioactivity was detected by liquid scintillation counting. K, values were calculated using Excel-Fit (Microsoft) and are the means of two determinations.

h-GABA-A α2β2γ1 = h-GABA-A α2β2γ1 (Homo sapiens (Human), UniProt P47869+Q8N1C3); test: Two-electrode voltage clamp electrophysiology in Xenopus oocytes expressing GABAA receptors; type: cell-based; conditions: for potentiation of the GABA-induced current in α2βγ1 GABAA receptor subtype expressing oocytes: reference PAMs, GABA EC20
Method: Xenopus laevis oocytes at maturation stages V-VI were used for the expression of cloned mRNA encoding GABAA receptor subunits. Oocytes ready for RNA micro-injection were bought from Ecocyte, Castrop-Rauxel, Germany and stored in modified Barth's medium (composition in mM: NaCl 88, KCl 1, NaHCO3 2.4, HEPES 10, MgSO4 0.82, CaNO3 0.33, CaCl2 0.33, pH=7.5) at 20° C. until the experiment.
Oocytes were plated in 96-well plates for microinjection using the Roboinject automated instrument (MultiChannelSystems, Reutlingen, Germany). Approximately 50 nL of an aqueous solution containing the RNA transcripts for the subunits of the desired GABAA receptor subtype was injected into each oocyte. […] Oocytes were kept in modified Barth's medium (composition in mM: NaCl 88, KCl 1, NaHCO3 […], HEPES 10, MgSO4 0.82, CaNO3 0.33, CaCl2 0.33, pH=7.5) at 20° C. until the experiment.
Electrophysiological experiments were performed using the Roboocyte instrument (MultiChannelSystems, Reutlingen, Germany) on days 3 to 5 after the micro-injection of mRNA. During the experiment the oocytes were constantly superfused by a solution containing (in mM) NaCl 90, KCl 1, HEPES 5, MgCl2 1 CaCl2 1 (pH 7.4). Oocytes were impaled by two glass microelectrodes (resistance: 0.5-0.8 MΩ) which were filled with a solution containing KCl 1M+K-acetate 1.5 M and voltage-clamped to −80 mV. The recordings were performed at room temperature using the Roboocyte two-electrode voltage clamp system (Multichannelsystem). After an initial equilibration period of 1.5 min GABA was added for 1.5 min at a concentration evoking approximately 20% of a maximal current response (EC20). After another rest interval of 2.5 min GABA was again added evoking a response of similar amplitude and shape. […] Current traces were recorded at a digitization rate of 10 Hz during and shortly before and after the GABA application.
Each compound and concentration was tested on at least 3 oocytes. Different oocytes were used for different compound concentrations.
For the analysis, the digitized current traces of the first and second GABA response were superimposed and, if necessary, rescaled to equal maximal amplitudes. The ratio between the two responses during the time interval of test compound application was calculated point by point. The extremum of the resulting “ratio trace” was taken as the efficacy (“Fold increase”) of the compound expressed as “% modulation of GABA EC20” (100*(Fold increase−1)).

[2] = biological target: human GABAA α1β3γ2 receptor (Homo sapiens (Human), UniProt P14867+P18507); test: Radioligand binding assay, [3H]Flumazenil competition, γ2-containing GABAA subtypes
Method: The affinity of compounds at GABAA γ2 subunit-containing receptors was measured by competition for [^3H]Flumazenil (81.1 Ci/mmol; Roche) binding to HEK293F cells expressing human (transiently transfected) receptors of composition α1β3γ2.
Harvested pellets from HEK293F cells expressing the different GABAA γ2 receptor subtypes were resuspended in Mannitol Buffer pH 7.2-7.4 and processed as described above for the cells expressing the GABAA γ1 subunit-containing receptors.
Assays were incubated to equilibrium for 1 hour at 4° C. and harvested onto GF/C uni-filters (Packard) by filtration using a Packard harvester and washing with ice-cold wash buffer (50 mM Tris; pH 7.5). After drying, filter-retained radioactivity was detected by liquid scintillation counting. Ki values were calculated using Exel-Fit (Microsoft) and are the means of two determinations.

**Q.** Which “γ2/γ1 Selectivity Ratio” value [1] does the source give for `Cc1nnc2n1-c1ccc(Cl)cc1C(c1ccccc1)=NC2` [Alprazolam, reference compound] here?
**A.** The value was 0.0050.

**Q.** And the LogSel [1]?
**A.** Its LogSel is −2.3.

**Q.** With `Clc1ccc2c(c1)C(c1ccccc1)=NCc1nncn1-2` [Estazolam, reference compound] as the compound, how does the “γ2/γ1 Selectivity Ratio” value [1] read?
**A.** Its value is 0.0089.

**Q.** And the LogSel [1]?
**A.** Its LogSel is −2.0.

**Q.** How did the “γ2/γ1 Selectivity Ratio” value [1] turn out when `CCc1nnc2n1-c1ccc(C(F)(F)F)c(Cl)c1C(c1c(F)cccc1F)=N[C@H]2C` [Example 108, (4S)-7-chloro-6-(2,6-difluorophenyl)-1-ethyl-4-methyl-8-(trifluoromethyl)-4H-[1,2,4]triazolo[4,3-a][1,4]benzodiazepine] was run?
**A.** The value was 50.4.

**Q.** What about the “Efficacy (GABA)%” value (h-GABA-A α2β2γ1; % modulation of GABA EC20 = 100*(Fold increase−1), compound at 30-fold Ki) of the same compound?
**A.** The value was 94%.

**Q.** How did the “potentiation of the GABA-induced current in α2βγ1 GABAA receptor subtype expressing oocytes” value (h-GABA-A α2β2γ1) turn out when `CN1C(=O)CN=C(c2ccccc2F)c2cc([N+](=O)[O-])ccc21` [Flunitrazepam, reference compound] was run?
**A.** Its value is about 60%.

**Q.** With `Cc1ncc2n1-c1ccc(Cl)cc1C(c1ccccc1F)=NC2` [Midazolam, reference compound] as the compound, how does the “γ2/γ1 Selectivity Ratio” value [1] read?
**A.** The value was 0.0068.

**Q.** And the LogSel [1]?
**A.** Its LogSel is −2.2.

**Q.** What about the “potentiation of the GABA-induced current in α2βγ1 GABAA receptor subtype expressing oocytes” value (h-GABA-A α2β2γ1) of the same compound?
**A.** Its value is about 60%.

**Q.** What does the source list for `Cc1nnc2n1-c1ccc(Br)cc1C(c1c(F)cccc1F)=NC2` [RE-A, 8-bromo-6-(2,6-difluorophenyl)-1-methyl-4H-[1,2,4]triazolo[4,3-a][1,4]benzodiazepine, reference compound]?
**A.** γ2/γ1 Selectivity Ratio [1]: 0.18; LogSel [1]: −0.74

**Q.** `Cc1nnc2n1-c1ccc(C(F)(F)F)cc1C(c1c(F)cccc1F)=NC2` [RE-B, 6-(2,6-difluorophenyl)-1-methyl-8-(trifluoromethyl)-4H-[1,2,4]triazolo[4,3-a][1,4]benzodiazepine, reference compound] was tested. Which “γ2/γ1 Selectivity Ratio” value [1] did it give?
**A.** Its value is 0.23.

**Q.** And the LogSel [1]?
**A.** Its LogSel is −0.64.

**Q.** What does the source list for `Cc1nnc2n1-c1ccccc1C(c1c(F)cccc1F)=NC2` [RE-C, 6-(2,6-difluorophenyl)-1-methyl-4H-[1,2,4]triazolo[4,3-a][1,4]benzodiazepine, reference compound]?
**A.** γ2/γ1 Selectivity Ratio [1]: 0.0092; LogSel [1]: −2.0

**Q.** With `Cc1nnc2n1-c1cccc(Cl)c1C(c1c(F)cccc1F)=N[C@H]2C` [RE-D, (4S)-7-chloro-6-(2,6-difluorophenyl)-1,4-dimethyl-4H-[1,2,4]triazolo[4,3-a][1,4]benzodiazepine, reference compound] as the compound, how does the Ki [2] read?
**A.** Its Ki is 1010 nM.

**Q.** And the Ki [1]?
**A.** The Ki was 454 nM.

**Q.** What about the “γ2/γ1 Selectivity Ratio” value [1] of the same compound?
**A.** Its value is 2.215.

**Q.** What about the LogSel [1] of the same compound?
**A.** The LogSel was 0.35.

**Q.** What does the source list for `Cc1nnc2n1-c1ccc(Cl)cc1C(c1ccccc1Cl)=NC2` [Triazolam, reference compound]?
**A.** LogSel [1]: −1.5; potentiation of the GABA-induced current in α2βγ1 GABAA receptor subtype expressing oocytes (h-GABA-A α2β2γ1): ~60%
